From PubChem BioAssay AID2060599 (Molecular Pharmacology Branch, DTP, NCI, 2025)

Test system: 817829-284-R-J1-PDC complex spheroids, viability
Experiment: Anticancer human tumor 817829-284-R-J1-PDC patient-derived colon adenocarcinoma cell line growth inhibition [CLK]
Conditions: for IC50: curve of first compound; for viability, T/C: stronger effect = lower value
Summary of the method: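 Patient-derived tumor cells grown as complex spheroids with HUVEC endothelial cells and mesenchymal stem cells, treated with drug combinations. Concentrations descend in half-log steps from near clinical Cmax, or from 10 microM if Cmax unknown.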
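Further: spheroids exposed to the agents for seven days before readout.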

## Nc1ccn(C2OC(CO)C(O)C2(F)F)c(=O)n1 (centres undefined) + CNC(=O)c1ccc(Nc2nc(OC3CCCC3)c3c(-c4ccc5nc(C)oc5c4)c[nH]c3n2)c(OC)c1
Second compound 0.0316 µM
  IC50: < 31.6 nM
Second compound 0.1 µM
  IC50: < 31.6 nM
Second compound 0.316 µM
  IC50: < 31.6 nM
Second compound 1 µM
  IC50: < 31.6 nM
Second compound 3.16 µM
  IC50: < 31.6 nM
Second compound 10 µM
  IC50: < 31.6 nM
Second compound 0.0316 µM, first compound 0.0316 µM
  viability, T/C: 7.4%
Second compound 0.0316 µM, first compound 0.1 µM
  viability, T/C: 6.76%
Second compound 0.0316 µM, first compound 0.316 µM
  viability, T/C: 7.11%
Second compound 0.0316 µM, first compound 1 µM
  viability, T/C: 7.29%
Second compound 0.0316 µM, first compound 3.16 µM
  viability, T/C: 5.09%
Second compound 0.0316 µM, first compound 10 µM
  viability, T/C: 3.92%
Second compound 0.1 µM, first compound 0.0316 µM
  viability, T/C: 8.05%
Second compound 0.1 µM, first compound 0.1 µM
  viability, T/C: 6.31%
Second compound 0.1 µM, first compound 0.316 µM
  viability, T/C: 5.97%
Second compound 0.1 µM, first compound 1 µM
  viability, T/C: 5.9%
Second compound 0.1 µM, first compound 3.16 µM
  viability, T/C: 5.26%
Second compound 0.1 µM, first compound 10 µM
  viability, T/C: 3.21%
Second compound 0.316 µM, first compound 0.0316 µM
  viability, T/C: 8.92%
Second compound 0.316 µM, first compound 0.1 µM
  viability, T/C: 6.1%
Second compound 0.316 µM, first compound 0.316 µM
  viability, T/C: 7.05%
Second compound 0.316 µM, first compound 1 µM
  viability, T/C: 4.87%
Second compound 0.316 µM, first compound 3.16 µM
  viability, T/C: 4.82%
Second compound 0.316 µM, first compound 10 µM
  viability, T/C: 2.7%
Second compound 1 µM, first compound 0.0316 µM
  viability, T/C: 6.66%
Second compound 1 µM, first compound 0.1 µM
  viability, T/C: 4.92%
Second compound 1 µM, first compound 0.316 µM
  viability, T/C: 5.51%
Second compound 1 µM, first compound 1 µM
  viability, T/C: 5.11%
Second compound 1 µM, first compound 3.16 µM
  viability, T/C: 3.64%
Second compound 1 µM, first compound 10 µM
  viability, T/C: 2.55%
Second compound 3.16 µM, first compound 0.0316 µM
  viability, T/C: 6.07%
Second compound 3.16 µM, first compound 0.1 µM
  viability, T/C: 5.26%
Second compound 3.16 µM, first compound 0.316 µM
  viability, T/C: 4.97%
Second compound 3.16 µM, first compound 1 µM
  viability, T/C: 4.56%
Second compound 3.16 µM, first compound 3.16 µM
  viability, T/C: 3.52%
Second compound 3.16 µM, first compound 10 µM
  viability, T/C: 3.21%
Second compound 10 µM, first compound 0.0316 µM
  viability, T/C: 7.94%
Second compound 10 µM, first compound 0.1 µM
  viability, T/C: 5.03%
Second compound 10 µM, first compound 0.316 µM
  viability, T/C: 4.94%
Second compound 10 µM, first compound 1 µM
  viability, T/C: 4.81%
Second compound 10 µM, first compound 3.16 µM
  viability, T/C: 4.26%
Second compound 10 µM, first compound 10 µM
  viability, T/C: 2.75%

## CC(C)CC(NC(=O)C(Cc1ccccc1)NC(=O)c1cnccn1)B(O)O (centres undefined) + CNC(=O)c1ccc(Nc2nc(OC3CCCC3)c3c(-c4ccc5nc(C)oc5c4)c[nH]c3n2)c(OC)c1
Second compound 0.0316 µM
  IC50: < 0.949 nM
Second compound 0.1 µM
  IC50: < 0.949 nM
Second compound 0.316 µM
  IC50: < 0.949 nM
Second compound 1 µM
  IC50: < 0.949 nM
Second compound 3.16 µM
  IC50: < 0.949 nM
Second compound 10 µM
  IC50: < 0.949 nM
Second compound 0.0316 µM, first compound 0.000949 µM
  viability, T/C: 31.9%
Second compound 0.0316 µM, first compound 0.003 µM
  viability, T/C: 0.67%
Second compound 0.0316 µM, first compound 0.00949 µM
  viability, T/C: 0.14%
Second compound 0.0316 µM, first compound 0.03 µM
  viability, T/C: 0.16%
Second compound 0.0316 µM, first compound 0.0949 µM
  viability, T/C: 0.14%
Second compound 0.0316 µM, first compound 0.3 µM
  viability, T/C: 0.09%
Second compound 0.1 µM, first compound 0.000949 µM
  viability, T/C: 25%
Second compound 0.1 µM, first compound 0.003 µM
  viability, T/C: 0.93%
Second compound 0.1 µM, first compound 0.00949 µM
  viability, T/C: 0.22%
Second compound 0.1 µM, first compound 0.03 µM
  viability, T/C: 0.17%
Second compound 0.1 µM, first compound 0.0949 µM
  viability, T/C: 0.11%
Second compound 0.1 µM, first compound 0.3 µM
  viability, T/C: 0.1%
Second compound 0.316 µM, first compound 0.000949 µM
  viability, T/C: 23%
Second compound 0.316 µM, first compound 0.003 µM
  viability, T/C: 0.45%
Second compound 0.316 µM, first compound 0.00949 µM
  viability, T/C: 0.13%
Second compound 0.316 µM, first compound 0.03 µM
  viability, T/C: 0.6%
Second compound 0.316 µM, first compound 0.0949 µM
  viability, T/C: 0.08%
Second compound 0.316 µM, first compound 0.3 µM
  viability, T/C: 0.13%
Second compound 1 µM, first compound 0.000949 µM
  viability, T/C: 14.7%
Second compound 1 µM, first compound 0.003 µM
  viability, T/C: 0.18%
Second compound 1 µM, first compound 0.00949 µM
  viability, T/C: 0.14%
Second compound 1 µM, first compound 0.03 µM
  viability, T/C: 0.09%
Second compound 1 µM, first compound 0.0949 µM
  viability, T/C: 0.13%
Second compound 1 µM, first compound 0.3 µM
  viability, T/C: 0.16%
Second compound 3.16 µM, first compound 0.000949 µM
  viability, T/C: 12.5%
Second compound 3.16 µM, first compound 0.003 µM
  viability, T/C: 0.39%
Second compound 3.16 µM, first compound 0.00949 µM
  viability, T/C: 0.14%
Second compound 3.16 µM, first compound 0.03 µM
  viability, T/C: 0.1%
Second compound 3.16 µM, first compound 0.0949 µM
  viability, T/C: 0.22%
Second compound 3.16 µM, first compound 0.3 µM
  viability, T/C: 0.09%
Second compound 10 µM, first compound 0.000949 µM
  viability, T/C: 11.3%
Second compound 10 µM, first compound 0.003 µM
  viability, T/C: 0.15%
Second compound 10 µM, first compound 0.00949 µM
  viability, T/C: 0.16%
Second compound 10 µM, first compound 0.03 µM
  viability, T/C: 0.14%
Second compound 10 µM, first compound 0.0949 µM
  viability, T/C: 0.23%
Second compound 10 µM, first compound 0.3 µM
  viability, T/C: 0.11%
